# Measurements published in patent US20100086623A1, “Chemical Combination for the Generation of Disinfectant and Heat” (priority 2004, published 2010).
# Test system: Staphylococcus aureus
# Test: Destruction of S. aureus cultures by aqueous chlorine dioxide solutions (plate counts)
# Assay type: cell-based
# Description: In this test, S. aureus cells were suspended in Butterfield's phosphate buffer diluent with a pH of 7.2. The density of each of these robust collections of S. aureus suspensions was approximately 10^7 colony-forming-units per mL (10^7 CFU/mL). […] Cell counts were made on samples recovered on Baird-Parker Agar with EY-Tellurite and incubated at 35° C. for 48 hours. […] In these test results, S. aureus survival was detected only at the most dilute chlorine dioxide solutions (0.044 ppm). […] This observation is consistent with lethality of chemical agents for destroying microorganisms being the mathematical product of the concentration of the lethal agent (C) and the time (t) of exposure, (C×t).
structure (smiles),measurement,setting,value
[O][Cl+][O-] [chlorine dioxide],inactivation of the pathogens,"0.044 ppm chlorine dioxide solution, exposure 24 hours",100%
same,survivors,"[ClO2] 0.044 ppm, 30° C., 3-5 min exposure",3.4% survivors
same,CFU/mL × 10^−6,"[ClO2] 0.044 ppm, 30° C., 3-5 min exposure, control 3.4",0.116 CFU/mL × 10^−6
same,CFU/mL × 10^−6,"[ClO2] 0.044 ppm, exposure for 24 h",0.00 CFU/mL × 10^−6
same,CFU/mL × 10^−6,"[ClO2] 0.044 ppm, exposure over night",<1.0 × 10^−4 CFU/mL × 10^−6
same,CFU/mL × 10^−6,"[ClO2] 0.44 ppm, 30° C., 3-5 min exposure, control 9.55",0 CFU/mL × 10^−6
same,CFU/mL × 10^−6,"[ClO2] 4.4 ppm, 30° C., 3-5 min exposure, control 3.4",0.00 CFU/mL × 10^−6
same,CFU/mL × 10^−6,"[ClO2] 44 ppm, 30° C., 3-5 min exposure, control 9.55",0.00 CFU/mL × 10^−6
